Drawing on US7851474B2, “Dipiperazinyl ketones and related analogues” (Neurogen Corporation, priority 2005, dated 2010), this text covers Ki for 35 molecules.

Usually Ki stands for the equilibrium dissociation constant of an inhibitor or competing ligand from its target.

The target in one assay is T1, chimeric human H3 receptor (Homo sapiens, UniProt Q9Y5N1, E19D).
T1 construct: made in house; host or cells: Sf9 insect cells (baculovirus infection); P2 membrane preparation
T1 sequence (Q9Y5N1 with tags, fused parts or gaps E19D): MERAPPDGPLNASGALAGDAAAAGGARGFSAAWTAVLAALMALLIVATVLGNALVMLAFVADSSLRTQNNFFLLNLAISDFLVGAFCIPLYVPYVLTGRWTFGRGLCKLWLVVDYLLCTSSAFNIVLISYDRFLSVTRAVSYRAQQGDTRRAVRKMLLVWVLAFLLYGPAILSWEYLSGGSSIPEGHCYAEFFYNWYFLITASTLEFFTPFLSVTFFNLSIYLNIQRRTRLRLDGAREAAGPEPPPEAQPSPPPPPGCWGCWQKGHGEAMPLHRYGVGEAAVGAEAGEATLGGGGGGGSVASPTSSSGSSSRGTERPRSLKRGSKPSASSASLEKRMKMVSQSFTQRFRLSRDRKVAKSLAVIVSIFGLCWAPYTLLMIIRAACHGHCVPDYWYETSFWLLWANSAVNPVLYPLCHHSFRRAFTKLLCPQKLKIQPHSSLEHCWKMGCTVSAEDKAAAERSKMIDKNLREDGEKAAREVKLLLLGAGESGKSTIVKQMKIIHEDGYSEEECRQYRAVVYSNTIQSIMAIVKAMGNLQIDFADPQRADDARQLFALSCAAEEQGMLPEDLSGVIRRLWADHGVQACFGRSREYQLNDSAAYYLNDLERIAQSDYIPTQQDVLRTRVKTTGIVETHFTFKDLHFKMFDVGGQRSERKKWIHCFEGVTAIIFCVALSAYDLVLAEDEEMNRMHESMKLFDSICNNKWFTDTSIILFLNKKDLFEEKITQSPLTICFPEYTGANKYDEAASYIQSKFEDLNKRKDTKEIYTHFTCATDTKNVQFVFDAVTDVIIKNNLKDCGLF
Description: Chimeric human H3 receptor GTP binding assay (agonist-stimulated GTP-gamma35S binding, Example 7). The following applies: "*" in Ki of Table II; assay of Example 7; read-out: Ki. In kind it is biochemical. In a few lines:
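IC50 values come from non-linear regression of dose-response curves of filter-bound GTP-gamma^35S, counted by scintillation. Membranes were from infected Sf9 cells carrying receptor plus G-protein subunits, 35 μg/tube, with 10 μM GDP present.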
As for `O=C(CN1CCN(c2ccc(-c3cc(C(F)(F)F)ccc3Cl)cc2)CC1)N1CCN(C2CCC2)CC1` [Compound 453, 1-[2′-chloro-5′-(trifluoromethyl)biphenyl-4-yl]-4-[2-(4-cyclobutylpiperazin-1-yl)-2-oxoethyl]piperazine], the inhibition constant Ki is below 1000 nM.

Staying with this assay, now noted: Table II "Ki", symbol "*": Ki in the assay of Example 7; read-out: Ki.
`CC(C)N1CCN(C(=O)CN2CCN(c3ccc(C(F)(F)F)cn3)CC2)CC1` [Compound 846, 1-isopropyl-4-({4-[5-(trifluoromethyl)pyridin-2-yl]piperazin-1-yl}acetyl)piperazine]: the Ki was below 1000 nM.

As for `O=C(CN1CCN(c2ccc([N+](=O)[O-])cc2)CC1)N1CCN(C2CCCCC2)CC1` [Compound 825, 1-cyclohexyl-4-{[4-(4-nitrophenyl)piperazin-1-yl]acetyl}piperazine], the inhibition constant Ki was below 1000 nM.

Consider `CCC(C)N1CCN(C(=O)CN2CCN(c3ccc(Cl)c(OC)c3)CC2)CC1` (centres unmarked) [Compound 877, 1-sec-butyl-4-{[4-(4-chloro-3-methoxyphenyl)piperazin-1-yl]acetyl}piperazine], for which the Ki was below 1000 nM.

In the case of `CCC(C)N1CCN(C(=O)CN2CCN(c3ccc(F)cc3)CC2)CC1` (centres unmarked) [Compound 880, 1-sec-butyl-4-{[4-(4-fluorophenyl)piperazin-1-yl]acetyl}piperazine], the Ki is below 1000 nM.

For `CCCOc1ccc(-c2ccc(N3CCN(CC(=O)N4CCN(C5CCC5)CC4)CC3)cc2)cc1` [Compound 789, 1-cyclobutyl-4-{[4-(4′-propoxybiphenyl-4-yl)piperazin-1-yl]acetyl}piperazine], the Ki is below 1000 nM.

With `CC(C)c1ccc(-c2cnc(N3CCN(CC(=O)N4CCN(C5CCC5)CC4)CC3)cn2)cc1` [Compound 927, 2-{4-[2-(4-cyclobutylpiperazin-1-yl)-2-oxoethyl]piperazin-1-yl}-5-(4-isopropylphenyl)pyrazine], the Ki is below 1000 nM.

The assay is the same for the next values; noted with them: Table II, "*" in Ki; assay of Example 7; read-out: Ki.
For `CCOc1ccc(-c2ccc(N3CCN(CC(=O)N4CCN(C5CCC5)CC4)CC3)cc2)cc1` [Compound 769, 1-cyclobutyl-4-{[4-(4′-ethoxybiphenyl-4-yl)piperazin-1-yl]acetyl}piperazine], the inhibition constant Ki is below 1000 nM.

In the case of `O=C(CN1CCN(c2ccc(-c3ccc(OC(F)(F)F)cc3)cc2)CC1)N1CCN(C2CCC2)CC1` [Compound 604, 1-cyclobutyl-4-({4-[4′-(trifluoromethoxy)biphenyl-4-yl]piperazin-1-yl}acetyl)piperazine], the Ki is below 1000 nM.

In the case of `Cc1cccc(C)c1N1CCN(CC(=O)N2CCN(C3CCC3)CC2)CC1` [Compound 698, 1-cyclobutyl-4-{[4-(2,6-dimethylphenyl)piperazin-1-yl]acetyl}piperazine], the Ki is below 1000 nM.

As for `COc1ccc(C)cc1-c1ccc(N2CCN(CC(=O)N3CCN(C4CCC4)CC3)CC2)cc1` [Compound 710, 1-cyclobutyl-4-{[4-(2′-methoxy-5′-methylbiphenyl-4-yl)piperazin-1-yl]acetyl}piperazine], the Ki is below 1000 nM.

Turning to `O=C(CN1CCN(c2ccc(-c3ccc(F)c(F)c3)cc2)CC1)N1CCN(C2CCC2)CC1` [Compound 730, 1-cyclobutyl-4-{[4-(3′,4′-difluorobiphenyl-4-yl)piperazin-1-yl]acetyl}piperazine], the Ki was below 1000 nM.

Staying with this assay, now noted: Table II; assay of Example 7; "*" in Ki; read-out: Ki.
As to `N#Cc1ccc(-c2cccc(N3CCN(CC(=O)N4CCN(C5CCC5)CC4)CC3)c2)cc1` [Compound 1065, 3′-{4-[2-(4-cyclobutylpiperazin-1-yl)-2-oxoethyl]piperazin-1-yl}biphenyl-4-carbonitrile], the Ki is below 1000 nM.

As to `O=C(CN1CCN(c2ccc(-c3ccncc3)nn2)CC1)N1CCN(C2CCC2)CC1` [Compound 1000, 3-{4-[2-(4-cyclobutylpiperazin-1-yl)-2-oxoethyl]piperazin-1-yl}-6-pyridin-4-ylpyridazine], the Ki is below 1000 nM.

For `COc1ccc(-c2ccc(N3CCN(CC(=O)N4CCN(C5CCC5)CC4)CC3)nn2)c(C)c1` [Compound 1038, 3-{4-[2-(4-cyclobutylpiperazin-1-yl)-2-oxoethyl]piperazin-1-yl}-6-(4-methoxy-2-methylphenyl)pyridazine], the Ki is below 1000 nM.

As for `CCC(C)N1CCN(C(=O)CN2CCN(c3cccc(C)c3)C(C)C2)CC1` (centres unmarked) [Compound 1114, 4-[2-(4-sec-butylpiperazin-1-yl)-2-oxoethyl]-2-methyl-1-(3-methylphenyl)piperazine], the Ki is below 1000 nM.

In the case of `COc1ccc(-c2ccc(N3CCN(CC(=O)N4CCN(C5CCC5)CC4)CC3)nn2)cc1F` [Compound 1027, 3-{4-[2-(4-cyclobutylpiperazin-1-yl)-2-oxoethyl]piperazin-1-yl}-6-(3-fluoro-4-methoxyphenyl) pyridazine], the Ki is below 1000 nM.

`Cc1cccc(C)c1-c1ccc(N2CCN(CC(=O)N3CCN(C4CCC4)CC3)CC2)nn1` [Compound 1059, 3-{4-[2-(4-cyclobutylpiperazin-1-yl)-2-oxoethyl]piperazin-1-yl}-6-(2,6-dimethylphenyl) pyridazine]: the inhibition constant Ki was below 1000 nM.

In the case of `O=C(CN1CCN(c2ccc(-c3cccc(F)c3)nn2)CC1)N1CCN(C2CCC2)CC1` [Compound 1004, 3-{4-[2-(4-cyclobutylpiperazin-1-yl)-2-oxoethyl]piperazin-1-yl}-6-(3-fluorophenyl)pyridazine], the Ki was below 1000 nM.

For the molecule `COc1ccc(-c2ccc(N3CCN(CC(=O)N4CCN(C5CCC5)CC4)CC3)nn2)cc1` [Compound 1032, 3-{4-[2-(4-cyclobutylpiperazin-1-yl)-2-oxoethyl]piperazin-1-yl}-6-(4-methoxyphenyl) pyridazine], the Ki is below 1000 nM.

As to `O=C(CN1CCN(c2cnc(-c3cc(Cl)ccc3Cl)cn2)CC1)N1CCN(C2CCC2)CC1` [Compound 973, 2-{4-[2-(4-cyclobutylpiperazin-1-yl)-2-oxoethyl]piperazin-1-yl}-5-(2,5-dichlorophenyl)pyrazine], the inhibitory constant (Ki) is below 1000 nM.

Take `COc1ccc(-c2ccc(N3CCN(CC(=O)N4CCN(C5CCC5)CC4)CC3)nn2)c(OC)c1` [Compound 1042, 3-{4-[2-(4-cyclobutylpiperazin-1-yl)-2-oxoethyl]piperazin-1-yl}-6-(2,4-dimethoxyphenyl) pyridazine]: the inhibitory constant (Ki) is below 1000 nM.

For `CN(C)c1cccc(-c2ccc(N3CCN(CC(=O)N4CCN(C5CCC5)CC4)CC3)nn2)c1` [Compound 996, 3-(6-{4-[2-(4-cyclobutylpiperazin-1-yl)-2-oxoethyl]piperazin-1-yl}pyridazin-3-yl)-N,N-dimethylaniline], the Ki is below 1000 nM.

As to `N#Cc1ccc(N2CCN(CC(=O)N3CCN(C4CCC4)CC3)CC2)cc1` [Compound 1121, 4-{1-[2-(4-cyclobutylpiperazin-1-yl)-2-oxoethyl]piperazin-1-yl}benzonitrile], the Ki was below 1000 nM.

The same assay, now with this note: assay of Example 7; "*" in Ki of Table II; read-out: Ki.
Take `COc1ccc(C(=O)NC2CCN(CC(=O)N3CCN(C4CCC4)CC3)C2)cc1` (centres unmarked) [Compound 1237, N-{1-[2-(4-cyclobutylpiperazin-1-yl)-2-oxoethyl]pyrrolidin-3-yl}-4-methoxybenzamide]: the Ki is below 1000 nM.

For `O=C(CC1CCCCC1)NC1CCN(CC(=O)N2CCN(C3CCC3)CC2)C1` (centres unmarked) [Compound 1249, N-{1-[2-(4-cyclobutylpiperazin-1-yl)-2-oxoethyl]pyrrolidin-3-yl}-2-cyclohexylacetamide], the Ki is below 1000 nM.

With `O=C(NCC1CCCCC1)c1ccc(N2CCN(CC(=O)N3CCN(C4CCC4)CC3)CC2)nc1` [Compound 1186, 6-{4-[2-(4-cyclobutylpiperazin-1-yl)-2-oxoethyl]piperazin-1-yl}-N-(cyclohexylmethyl) nicotinamide], the inhibition constant Ki is below 1000 nM.

Regarding `CCOC(=O)c1ccc(-c2cnc(N3CCN(CC(=O)N4CCN(C5CCC5)CC4)CC3)cn2)cc1` [Compound 1197, ethyl 4-(5-{4-[2-(4-cyclobutylpiperazin-1-yl)-2-oxoethyl]piperazin-1-yl}pyrazin-2-yl)benzoate], the inhibition constant (Ki) was below 1000 nM.

Take `O=C(NC1CCC1)c1cccc(N2CCN(CC(=O)N3CCN(C4CCC4)CC3)CC2)c1` [Compound 1266, N-cyclobutyl-3-{4-[2-(4-cyclobutylpiperazin-1-yl)-2-oxoethyl]piperazin-1-yl}benzamide]: the Ki is below 1000 nM.

The same assay, now with this note: assay of Example 7; symbol * in column headed Ki of Table II; read-out: Ki.
`CCN1CCN(C(=O)CN2CCN(c3ccc(Br)c(OC)c3)CC2)CC1` [Compound 335, 1-(4-bromo-3-methoxyphenyl)-4-[2-(4-ethylpiperazin-1-yl)-2-oxoethyl]piperazine]: the Ki is below 1000 nM.

On to `COc1ccc(CN2C(=O)c3ccccc3C23CCN(CC(=O)N2CCN(C4CCC4)CC2)CC3)c(OC)c1` [Compound 425, 1′-[2-(4-cyclobutylpiperazin-1-yl)-2-oxoethyl]-2-(2,4-dimethoxybenzyl)spiro[isoindole-1,4′-piperidin]-3(2H)-one], for which the inhibition constant (Ki) was below 1000 nM.

Take `O=C(c1ccncc1)c1ccc(N2CCN(CC(=O)N3CCN(C4CCC4)CC3)CC2)cc1` [Compound 250, (4-{4-[2-(4-cyclobutylpiperazin-1-yl)-2-oxoethyl]piperazin-1-yl}phenyl)(pyridin-4-yl)methanone]: the Ki was below 1000 nM.

Consider `CC(=O)c1ccc(N2CCN(CC(=O)N3CCN(C4CCC4)CC3)[C@H](C)C2)cc1` [Compound 306, 1-(4-{4-[2-(4-cyclobutylpiperazin-1-yl)-2-oxoethyl]-3-methylpiperazin-1-yl}phenyl)ethanone], for which the inhibition constant (Ki) is below 1000 nM.

For the molecule `O=C(CN1CCN(c2ccc(Cl)cc2)CC1)N1CCN(C2CCC2)CC1` [Compound 356], the Ki was below 1000 nM.

Turning to `CCC(C)N1CCN(C(=O)CN2CCN(c3ccc(C(C)=O)cc3)CC2)CC1` (centres unmarked) [Compound 330, 1-(4-{4-[2-(4-sec-butylpiperazin-1-yl)-2-oxoethyl]piperazin-1-yl}phenyl)ethanone], the Ki is below 1000 nM.
